“Also recorded” adds a separate entry of the source. Values belong to the compound of their own block, whether it stands above or below them. Where a SMILES comes first, the peptide text is derived from it.
How the values were obtained:
[1] = μPET/CT imaging and biodistribution of ^89Zr-radiolabeled peptides; format: in vivo, BALB/c mice; conditions: i.v.
Protocol: Radiochemistry—^89Zirconium (^89Zr) was supplied by 3DImaging LLC (Little Rock, AR). The ^89Zr-oxalate (500 μCi) was first neutralized with an equivalent volume of sodium carbonate solution (2 M), and then added to the DFO-peptides (0.2 mg, 250 μL). After incubation for 1.5 h at room temperature, the radiolabeled peptides (^89Zr-peptides) were purified by size exclusion chromatography using Sephadex G-25 gel to remove the free zirconium.
μPET/CT imaging and biodistribution study—BALB/c mice were intravenously injected with different ^89Zr-peptide analogues (20 μCi, 100 μL). μLPET/CT imaging was performed in animals with and without urine collection prior to the first imaging (n=4/analogue/condition). Whole-body images were acquired 1, 4, and 24 h after injection, using Inveon μPET/CT scanner (Siemens Medical Solutions, Malvern, PA). μPET/CT maximum energy projections were processed using Amide v1.0.4 and Inveon Research Workplace software. The radioactivities at different region of interest (ROI) were determined. […] The radioactivities of the harvested organs were measured using the Wallac Wizard 2 gamma counter. The results were corrected from radioactive decay, and were expressed as a percentage of the injected dose (% ID) or percentage of injected dose per gram of tissue (% ID/g).

[2] = Fluorescence imaging of Cyanine5.5-labeled peptides (in vivo, ex vivo, urine); parameters: species or system Female SHO mice; conditions: i.v.
Source text: The animals were then euthanized.

[3] = tested on: kidney injury molecule-1 (KIM-1) and neutrophil gelatinase-associated lipocalin (NGAL); test: Nephrotoxicity studies, urinary renal injury biomarkers by ELISA; format: in vivo, BALB/c mice; conditions: single i.v. dose; 3 days
Protocol: The level of the acute renal injury biomarkers, neutrophil gelatinase-associated lipocalin (NGAL) and kidney injury molecule-1 (KIM-1) in the urine samples, were measured using ELISA assays according to the manufacturer's instructions (R&D Systems, Minneapolis, MN). […] All the animals (n=3/group) were euthanized at the end of the treatment and the kidneys were collected and fixed in 10% neutral buffered formalin. The tissues were then processed, embedded in paraffin, sectioned, and stained with H&E. Immunohistochemistry (IHC) for kidney injury (NGAL and KIM-I) was also performed.

[4] = tested on: orthotopic human UMUC-3 tumors; test: Therapeutic efficacy for treating BC, orthotopic UMUC-3/GFP-Luc xenograft; conditions: 5 mg/kg weekly
Source text: These animals were immediately euthanized I week after the completion of the treatment schedule.
Slides were then counterstained with Hematoxylin.

[5] = Serum biochemistry; format: in vivo, female BALB/c mice; conditions: i.v. weekly for 3 weeks; DM1 0.75 mg/kg, CIS 10 mg/kg
Source text: (§1) At the end of a 3-week treatment, mice were euthanized. The organs/tissues were harvested, fixed in 10% neutral buffered formalin for 2 days. Bones were decalcified in a formic acid solution (Surgipath Decalcifier I; Leica Biosystems, Weltzar, Germany). The samples were then embedded in paraffin, sectioned (5 μm), and stained with H&E for examination by an ACVP board certified anatomic pathologist.
(§2) Hematology and biochemistry—Blood samples were collected via cardiac puncture. A complete blood count, including red blood cell, white blood cell, reticulocyte and platelet counts, with an automated differential leukocyte count, was performed using an IDEXX Procyte DX hematology analyzer (iDEXX, Westbrook. ME). Blood smears were prepared, stained with modified Wright's stain, examined in a blinded fashion by a board-certified veterinary clinical pathologist (T.S.), and imaged using a Nikon Eclipse TE2000-U fluorescent microscope equipped with a photometrics CoolSNAP HQ^2 camera (Nikon Corporation, Tokyo, Japan). The blood was also centrifuged (1,500×G) for 15 min to obtain the serum for biochemical analysis using a Beckman Coulter AU680 analyzer (Beckman Coulter, Brea, CA).

[6] = Hematology, complete blood count; format: in vivo, female BALB/c mice; conditions: i.v. weekly for 3 weeks; DM1/DM1-Bdd 0.75 mg/kg, CIS 10 mg/kg
Protocol: as §1, with “Necropsy—Seven- to 9-week-old female BALB/c mice (n=4/group) were treated weekly with PBS, DM1, DM1-peptide (0.75 mg/kg of drug content), or cisplatin (10 mg/kg) via tail-vein injection (150 μL). At” for “At”
as §2

[7] = tested on: major organs (liver, spleen, heart, lungs, and kidneys); test: Necropsy, histopathology of major organs; format: in vivo, female BALB/c mice; conditions: i.v. weekly for 3 weeks; DM1/DM1-Bdd 0.75 mg/kg, CIS 10 mg/kg
Source text: as §1

Compound: CC(=O)N(O)CCCCCNC(=O)CCC(=O)N(O)CCCCCNC(=O)CCC(=O)N(O)CCCCCNC(=S)Nc1ccc(NC(=S)NCCC(=O)N[C@@H](CCCCN)C(=O)N[C@@H](CCCCN)C(=O)NCCC(=O)N[C@@H](CCCCN)C(=O)N[C@@H](CCCCN)C(=O)NCCC(=O)N[C@@H](CCCCN)C(=O)N[C@@H](CCCCN)C(=O)NCCC(=O)N[C@@H](CCCCN)C(=O)N[C@@H](CCCCN)C(N)=O)cc1 [^89Zr-BKK, metal not drawn] (HELM PEPTIDE1{[CC(=O)N(O)CCCCCNC(=O)CCC(=O)N(O)CCCCCNC(=O)CCC(=O)N(O)CCCCCNC(=S)Nc1ccc(NC(=S)[*:2])cc1].[bAla].K.K.[bAla].K.K.[bAla].K.K.[bAla].K.K.[am]}$$$$V2.0)
organ distribution [1]: delivered to the liver in addition to the URS

Compound: CN1/C(=C/C=C/C=C/C2=[N+](CCCCCC(=O)NCCC(=O)N[C@@H](CCCCN)C(=O)N[C@@H](CC(=O)O)C(=O)NCCC(=O)N[C@@H](CCCCN)C(=O)N[C@@H](CC(=O)O)C(=O)NCCC(=O)N[C@@H](CCCCN)C(=O)N[C@@H](CC(=O)O)C(=O)NCCC(=O)N[C@@H](CCCCN)C(=O)N[C@@H](CC(=O)O)C(N)=O)c3ccc4ccccc4c3C2(C)C)C(C)(C)c2c1ccc1ccccc21 [Cy-BKD] (HELM PEPTIDE1{[CN1/C(=C/C=C/C=C/C2=[N+](CCCCCC(=O)[*:2])c3ccc4ccccc4c3C2(C)C)C(C)(C)c2c1ccc1ccccc21].[bAla].K.D.[bAla].K.D.[bAla].K.D.[bAla].K.D.[am]}$$$$V2.0)
main uptake organ [2]: mainly taken up by the liver

main uptake organ [2]: mainly taken up by the liver
Compound: Cyanine5.5 [free Cy, reference compound]

Compound: CN1/C(=C/C=C/C=C/C2=[N+](CCCCCC(=O)NCCC(=O)N[C@@H](CCCCN)C(=O)N[C@@H](CCCCN)C(=O)NCCC(=O)N[C@@H](CCCCN)C(=O)N[C@@H](CCCCN)C(=O)NCCC(=O)N[C@@H](CCCCN)C(=O)N[C@@H](CCCCN)C(=O)NCCC(=O)N[C@@H](CCCCN)C(=O)N[C@@H](CCCCN)C(N)=O)c3ccc4ccccc4c3C2(C)C)C(C)(C)c2c1ccc1ccccc21 [Cy-BKK] (HELM PEPTIDE1{[CN1/C(=C/C=C/C=C/C2=[N+](CCCCCC(=O)[*:2])c3ccc4ccccc4c3C2(C)C)C(C)(C)c2c1ccc1ccccc21].[bAla].K.K.[bAla].K.K.[bAla].K.K.[bAla].K.K.[am]}$$$$V2.0)
main uptake organ [2]: mainly taken up by the liver

Compound: CO[C@@]12[C@H](COC(N)=O)C3=C(C(=O)C(C)=C(N)C3=O)N1C[C@@H]1N[C@@H]12 [MIT, Mitomycin]
induction of KIM-1 and/or NGAL, 3 days [3]: continued induction of KIM-1 and/or NGAL

Compound: COc1cccc2c1C(=O)c1c(O)c3c(c(O)c1C2=O)C[C@@](O)(C(=O)CO)C[C@@H]3O[C@H]1C[C@H](N)[C@H](O)[C@H](C)O1 [DOX, Doxorubicin, reference compound]
body weight [4]: all the animals continuously losing weight
life expectancy compared to the PBS control / mortality [4]: shorter life expectancy compared to the PBS control; also recorded: died prior to receiving the final dose; also recorded: caused mortality

Compound: Nc1ccn([C@@H]2O[C@H](CO)[C@@H](O)C2(F)F)c(=O)n1 [GEM, gemcitabine]
induction of KIM-1 and/or NGAL, 3 days [3]: continued induction of KIM-1 and/or NGAL

Compound: NH2-(PEG3)DD-(PEG3)DD-(PEG3)DD-(PEG3)DD-CONH2 (SEQ ID NO:5) [PEG3DD]
accumulation in kidneys over time [1]: initial increase

Compound: N.N.[Cl][Pt][Cl] [CIS, cis-dichlorodiammine platinum(II)]
muscle injury (CK activity) [5]: induced muscle injury (CK activity)
red blood cell, leukocyte, or platelet counts or morphologic features [6]: thrombocytopenia and lymphopenia
histopathology of liver, spleen, heart, lungs, or kidneys [7]: degeneration and necrosis of the proximal renal tubules, lung inflammation, and depletion of both erythrocytes and extramedullary hematopoiesis (EMH) in spleen
